US11352399B2, “Peptide for toll-like receptor (TLR) inhibition and pharmaceutical composition comprising same” (GENESEN CO., LTD., priority 2017, dated 2022)

Legend:
[1] = tested on: LPS-injected C57BL/6J mice; experiment: Plasma cytokine secretion in LPS-injected mice; format: in vivo, mouse; details: TIP1 10 nmol/g i.p., 1 hour later LPS 5 μg/g, blood 1 or 2 hours
Protocol: All animal experiments were conducted under approval of the Institutional Animal Care and Use Committee (KHNMC AP 2016-006). […] The control was injected with the same volume of PBS. Subsequently, the plasma was isolated through centrifugation from the mouse blood and stored at −80° C. until analysis of secretion levels. TNF-α, IL-12p40 (diluted at 1:100), and IL-6 (diluted at 1:100) levels in the plasma were measured using mouse TNF-α, IL-12p40, IL-6 ELISA MAX Deluxe ELISA kits (BioLegend, San Diego, Calif., USA). Absorbance was measured at 450 nm using a microplate reader spectrophotometer (Molecular Devices In.), and the results were analyzed using Softmax Pro 5.3 software (Molecular Devices Inc.). The results are illustrated in FIGS. 14(a)-14(c).

TLR7/8 = experiment: TNF-α secretion in RAW 264.7 cells with R848; format: cell-based, mouse
TLR2/6 = molecular target: T1, TLR2/6 (Mus musculus, UniProt Q9EPW9+Q9QUN7); experiment: TNF-α secretion in RAW 264.7 cells with FSL-1; format: cell-based
T1 construct: host or cells: RAW 264.7

RAW 264.7 cells = experiment: Intracytoplasmic NO and ROS (DAF-FM, DCF-DA) in RAW 264.7 cells; format: cell-based, mouse; details: TIP1 and LPS
Protocol: RAW 264.7 cells were dispensed into 6-cm dishes (SPL Life Sciences, Pocheon, Korea) to a cell number of 1×10^6 cells/well and incubation was performed overnight. Subsequently, treatment with TIP1 was performed and respective staining with DAF-FM and DCF-DA (Thermo Fisher Scientific, Inc.) was performed. Then, incubation was performed for 1 hour. Thereafter, the cells were collected by centrifugation at 200×g for 5 minutes, transferred to brown tubes, and stored in PBS at a temperature of 4° C. The intensities of DAF-FM, DCF-DA fluorescent materials were measured using FACSAria III with Diva software (BD Biosciences), and quantified.
In addition, according to the method described in Example 2-7, a NO level in the culture supernatant of RAW 264.7 cells was measured using a NO detection kit. The results are illustrated in FIGS. 5(a)-5(c).

[2] = tested on: renal tissue of LPS-treated mice; experiment: Renal apoptosis by TUNEL staining in LPS-treated mice; format: in vivo, mouse; details: TIP1 and LPS, 24 hours
Protocol: Subsequently, renal tissues were isolated and weighed using an electronic balance (ER-180A, A&D Company, Tokyo, Japan); and then, cut into sagittal planes to make slices. The slices were left overnight in a 10% formalin solution, and then solidified by pouring of paraffin wax. The resultant was made into thin sections of 4 μm using a microtome and fixed. […] The images were analyzed using Zen 2009 software (Carl Zeiss MicroImaging GmbH.). The results are illustrated in FIG. 17.

TLR1/2 = molecular target: T2, TLR1/2 (Mus musculus, UniProt Q9EPQ1+Q9QUN7); experiment: TNF-α secretion in RAW 264.7 cells with PAM3CSK4; format: cell-based
T2 construct: host or cells: RAW 264.7

NLRP3 inflammasome [3] = experiment: IL-1β secretion (ELISA) in LPS/ATP-treated THP1 cells; format: cell-based, human; details: TIP1 and LPS/ATP
NLRP3 inflammasome [4] = experiment: IL-1β secretion (ELISA) in LPS/ATP-treated mBMDM cells; format: cell-based, mouse; details: TIP1 and LPS/ATP
[5] = tested on: C57BL/6J mice, mouse sepsis model; experiment: Renal and hepatic damage markers and cytokines in plasma, mouse sepsis model (24 hours); format: in vivo; details: TIP1 and LPS
Protocol: Using the isolated plasma, secretion levels of TNF-α and IL-6 were measured by the method in Experimental Example 9, and changes in secretion levels of the renal damage markers, blood urea nitrogen (BUN) and creatinine (Cr), and the hepatic damage markers, aspartate aminotransferase (AST) and alanine aminotransferase (ALT) were analyzed through VETTEST-8008-system (IDEXX). The results are illustrated in FIGS. 16(a)-16(f).

[6] = tested on: liver tissues of C57BL/6J mice; experiment: Cytokine expression in liver tissue of LPS-treated mice (Western blotting); format: in vivo, mouse; details: LPS and TIP1, 2 hours
hPBMC cells = experiment: NO secretion in LPS-treated hPBMC cells; format: cell-based, human; details: together with LPS, FIG. 12(b)

T2 sequence (Q9EPQ1 26-795): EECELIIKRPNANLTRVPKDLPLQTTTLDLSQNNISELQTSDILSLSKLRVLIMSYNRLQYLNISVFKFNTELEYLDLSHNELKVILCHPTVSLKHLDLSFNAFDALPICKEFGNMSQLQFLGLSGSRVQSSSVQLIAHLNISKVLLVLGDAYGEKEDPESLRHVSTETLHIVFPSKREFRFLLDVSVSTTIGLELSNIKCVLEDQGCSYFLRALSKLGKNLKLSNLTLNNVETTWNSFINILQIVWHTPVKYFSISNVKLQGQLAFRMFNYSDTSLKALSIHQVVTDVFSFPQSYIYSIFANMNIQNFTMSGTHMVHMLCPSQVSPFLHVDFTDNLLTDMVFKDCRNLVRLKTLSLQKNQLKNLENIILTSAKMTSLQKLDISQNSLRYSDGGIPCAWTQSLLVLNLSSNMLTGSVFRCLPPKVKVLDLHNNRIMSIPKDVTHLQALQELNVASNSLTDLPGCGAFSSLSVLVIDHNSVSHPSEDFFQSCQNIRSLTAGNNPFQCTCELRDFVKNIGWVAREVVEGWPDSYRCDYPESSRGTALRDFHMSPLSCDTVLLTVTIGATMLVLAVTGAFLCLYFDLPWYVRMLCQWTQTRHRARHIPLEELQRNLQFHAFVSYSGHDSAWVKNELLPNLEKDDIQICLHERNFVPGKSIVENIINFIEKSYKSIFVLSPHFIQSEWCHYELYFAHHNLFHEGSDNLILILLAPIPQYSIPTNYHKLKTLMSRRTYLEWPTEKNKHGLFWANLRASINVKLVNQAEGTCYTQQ
T2 sequence (Q9QUN7 25-784): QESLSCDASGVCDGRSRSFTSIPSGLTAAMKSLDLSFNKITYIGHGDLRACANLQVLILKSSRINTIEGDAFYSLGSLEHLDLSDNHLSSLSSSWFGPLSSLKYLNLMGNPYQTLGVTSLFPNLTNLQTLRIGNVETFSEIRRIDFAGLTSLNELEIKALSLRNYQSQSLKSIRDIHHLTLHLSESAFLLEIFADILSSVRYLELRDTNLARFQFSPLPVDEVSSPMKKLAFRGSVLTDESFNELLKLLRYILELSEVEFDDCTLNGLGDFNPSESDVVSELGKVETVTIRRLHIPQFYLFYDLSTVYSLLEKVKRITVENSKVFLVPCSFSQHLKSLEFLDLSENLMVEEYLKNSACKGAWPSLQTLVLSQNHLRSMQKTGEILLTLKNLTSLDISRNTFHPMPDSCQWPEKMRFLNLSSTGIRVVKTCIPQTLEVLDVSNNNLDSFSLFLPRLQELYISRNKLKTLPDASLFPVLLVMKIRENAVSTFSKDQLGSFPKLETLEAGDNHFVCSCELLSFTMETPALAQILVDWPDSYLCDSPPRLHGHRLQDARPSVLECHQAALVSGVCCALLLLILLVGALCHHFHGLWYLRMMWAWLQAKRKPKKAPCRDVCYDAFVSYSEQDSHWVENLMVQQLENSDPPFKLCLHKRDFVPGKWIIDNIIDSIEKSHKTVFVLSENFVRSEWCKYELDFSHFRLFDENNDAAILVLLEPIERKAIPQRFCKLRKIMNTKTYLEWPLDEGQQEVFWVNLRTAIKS
T1 sequence (Q9QUN7 25-784): as above
T1 sequence (Q9EPW9 28-795): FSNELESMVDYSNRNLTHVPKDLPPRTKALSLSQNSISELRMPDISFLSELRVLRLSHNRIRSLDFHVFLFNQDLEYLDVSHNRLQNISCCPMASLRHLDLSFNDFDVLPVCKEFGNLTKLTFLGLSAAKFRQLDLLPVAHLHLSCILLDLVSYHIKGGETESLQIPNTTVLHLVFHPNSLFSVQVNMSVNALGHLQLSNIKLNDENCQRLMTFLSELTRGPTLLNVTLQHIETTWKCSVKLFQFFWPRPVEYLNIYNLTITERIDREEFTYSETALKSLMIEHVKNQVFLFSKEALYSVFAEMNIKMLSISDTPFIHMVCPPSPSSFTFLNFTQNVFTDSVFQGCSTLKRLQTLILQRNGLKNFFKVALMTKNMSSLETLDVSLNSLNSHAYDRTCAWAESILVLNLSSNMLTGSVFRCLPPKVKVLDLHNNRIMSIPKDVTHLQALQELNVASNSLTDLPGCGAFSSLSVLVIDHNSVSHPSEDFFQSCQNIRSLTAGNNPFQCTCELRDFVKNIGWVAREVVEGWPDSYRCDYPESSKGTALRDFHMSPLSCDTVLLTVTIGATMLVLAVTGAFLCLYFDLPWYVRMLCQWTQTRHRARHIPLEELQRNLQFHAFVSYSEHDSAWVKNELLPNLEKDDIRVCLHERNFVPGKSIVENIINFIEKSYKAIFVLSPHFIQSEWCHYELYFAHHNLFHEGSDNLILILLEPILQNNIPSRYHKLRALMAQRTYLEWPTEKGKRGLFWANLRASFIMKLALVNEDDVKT

RQIKIWFQNRRMKWKKSHCRVLLI (TIP1)
secretion level of IL-6 in plasma [1]: remarkably decreased
secretion level of IL-12p40 in plasma [1]: remarkably decreased
secretion level of TNF-α in plasma [1]: remarkably decreased
secretion level of TNF-α (TLR7/8): decreased
secretion level of TNF-α (TLR2/6): decreased
generation level of NO in the cytoplasm (RAW 264.7 cells; DAF-FM): effectively decreased
generation level of ROS in the cytoplasm (RAW 264.7 cells; DCF-DA): effectively decreased
apoptosis in renal tissue (TUNEL-positive cells) [2]: decreased
secretion level of TNF-α (TLR1/2): decreased
secretion level of IL-1β (NLRP3 inflammasome [3]): decreased
secretion level of IL-1β (NLRP3 inflammasome [4]): decreased
alanine aminotransferase (ALT), hepatic damage marker [5]: remarkably decreased
aspartate aminotransferase (AST), hepatic damage marker [5]: remarkably decreased
blood urea nitrogen (BUN), renal damage marker [5]: remarkably decreased
creatinine (Cr), renal damage marker [5]: remarkably decreased
secretion level of IL-6 in plasma [5]: remarkably decreased
secretion level of TNF-α in plasma [5]: remarkably decreased
LPS-induced expression level of IL-6 in liver tissue [6]: remarkably decreased
LPS-induced expression level of TNF-α in liver tissue [6]: remarkably decreased
NO secretion level (hPBMC cells): highest decreasing effect on NO secretion level
